± gives the expanded uncertainty stated by the source.
Experiments:
[1] = xn = mol fraction of the nth substance listed; conditions: 101.3 kPa, Liquid, x2 = 0; for speed of sound: Sing-around technique in a fixed-path interferometer; for mass density: Vibrating tube method
[2] = refractive index (Na D-line) (dimensionless); xn = mol fraction of the nth substance listed; conditions: 101.3 kPa, Liquid, Standard Abbe refractometry, x2 = 0
[3] = 101.3 kPa, Liquid; for speed of sound: Sing-around technique in a fixed-path interferometer; for mass density: Vibrating tube method
[4] = refractive index (Na D-line) (dimensionless); conditions: 101.33 kPa, Liquid, Standard Abbe refractometry

`CCCCO` [butan-1-ol] + CCCCn1cc[n+](C)c1.COS(=O)(=O)[O-] showed a speed of sound ([1]; 298.15 K) of 1239.3 ± 1.2 m/s, a mass density ([1]; 298.15 K) of 805.93 ± 0.24 kg/m3 and a speed of sound ([1]; 303.15 K) of 1222.9 ± 1.2 m/s. The mass density ([1]; 303.15 K) was 802.088 ± 0.24 kg/m3, the speed of sound ([1]; 308.15 K) was 1206.3 ± 1.2 m/s and the mass density ([1]; 308.15 K) was 798.214 ± 0.24 kg/m3. It also gave a speed of sound ([1]; 313.15 K) of 1189.7 ± 1.2 m/s, a mass density ([1]; 313.15 K) of 794.301 ± 0.24 kg/m3 and a refractive index ([2]; 298.15 K) of 1.39747 ± 0.00037. For the same compound, the refractive index ([2]; 303.15 K) was 1.39549 ± 0.00037, the refractive index ([2]; 308.15 K) was 1.39342 ± 0.00037 and the refractive index ([2]; 313.15 K) was 1.39138 ± 0.00037.
`CC(C)O` [propan-2-ol] gave a speed of sound ([3]; 298.15 K) of 1138.7 ± 0.78 m/s, a mass density ([3]; 298.15 K) of 781.123 ± 0.15 kg/m3 and a speed of sound ([3]; 303.15 K) of 1121.4 ± 0.78 m/s. The mass density ([3]; 303.15 K) was 776.845 ± 0.15 kg/m3, the speed of sound ([3]; 308.15 K) was 1103.9 ± 0.77 m/s and the mass density ([3]; 308.15 K) was 772.487 ± 0.15 kg/m3. It also gave a speed of sound ([3]; 313.15 K) of 1086.6 ± 0.77 m/s, a mass density ([3]; 313.15 K) of 768.053 ± 0.15 kg/m3 and a refractive index ([4]; 298.15 K) of 1.37527 ± 0.00033. It also gave a refractive index ([4]; 303.15 K) of 1.37314 ± 0.00033, a refractive index ([4]; 308.15 K) of 1.37093 ± 0.00033 and a refractive index ([4]; 313.15 K) of 1.3687 ± 0.00033.
`CO` [methanol] showed a speed of sound ([3]; 298.15 K) of 1104.3 ± 0.59 m/s, a mass density ([3]; 298.15 K) of 787.405 ± 0.12 kg/m3 and a speed of sound ([3]; 303.15 K) of 1088.3 ± 0.59 m/s. It also gave a mass density ([3]; 303.15 K) of 782.688 ± 0.12 kg/m3, a speed of sound ([3]; 308.15 K) of 1072 ± 0.58 m/s and a mass density ([3]; 308.15 K) of 777.941 ± 0.12 kg/m3. It also gave a speed of sound ([3]; 313.15 K) of 1055.9 ± 0.58 m/s, a mass density ([3]; 313.15 K) of 773.168 ± 0.12 kg/m3 and a refractive index ([4]; 298.15 K) of 1.3272 ± 0.00031. For the same compound, the refractive index ([4]; 303.15 K) was 1.32552 ± 0.00031, the refractive index ([4]; 308.15 K) was 1.32362 ± 0.00031 and the refractive index ([4]; 313.15 K) was 1.32171 ± 0.00031.
In the case of `CCCCn1cc[n+](C)c1.COS(=O)(=O)[O-]` [1-butyl-3-methylimidazolium methyl sulfate], the speed of sound ([3]; 298.15 K) is reported as 1654.6 ± 3.1 m/s, the mass density ([3]; 298.15 K) is reported as 1212.06 ± 2.8 kg/m3 and the speed of sound ([3]; 303.15 K) is reported as 1642.2 ± 3.1 m/s. For the same compound, the mass density ([3]; 303.15 K) was 1208.7 ± 2.8 kg/m3, the speed of sound ([3]; 308.15 K) was 1630 ± 3.1 m/s and the mass density ([3]; 308.15 K) was 1205.35 ± 2.8 kg/m3. It also gave a speed of sound ([3]; 313.15 K) of 1617.9 ± 3.1 m/s, a mass density ([3]; 313.15 K) of 1202.01 ± 2.8 kg/m3 and a refractive index ([4]; 298.15 K) of 1.47824 ± 0.00068. The refractive index ([4]; 303.15 K) was 1.47704 ± 0.00068, the refractive index ([4]; 308.15 K) was 1.47577 ± 0.00068 and the refractive index ([4]; 313.15 K) was 1.47443 ± 0.00068.
`CC(C)O` [propan-2-ol] + CCCCn1cc[n+](C)c1.COS(=O)(=O)[O-] gave a speed of sound ([1]; 298.15 K) of 1138.7 ± 0.78 m/s, a mass density ([1]; 298.15 K) of 781.123 ± 0.15 kg/m3 and a speed of sound ([1]; 303.15 K) of 1121.4 ± 0.78 m/s. The mass density ([1]; 303.15 K) was 776.845 ± 0.15 kg/m3, the speed of sound ([1]; 308.15 K) was 1103.9 ± 0.77 m/s and the mass density ([1]; 308.15 K) was 772.487 ± 0.15 kg/m3. The speed of sound ([1]; 313.15 K) was 1086.6 ± 0.77 m/s, the mass density ([1]; 313.15 K) was 768.053 ± 0.15 kg/m3 and the refractive index ([2]; 298.15 K) was 1.37527 ± 0.00033. The refractive index ([2]; 303.15 K) was 1.37314 ± 0.00033, the refractive index ([2]; 308.15 K) was 1.37093 ± 0.00033 and the refractive index ([2]; 313.15 K) was 1.3687 ± 0.00033.
With `CO` [methanol] + CCCCn1cc[n+](C)c1.COS(=O)(=O)[O-] the speed of sound ([1]; 298.15 K) was 1104.3 ± 0.59 m/s, the mass density ([1]; 298.15 K) was 787.405 ± 0.12 kg/m3 and the speed of sound ([1]; 303.15 K) was 1088.3 ± 0.59 m/s. The mass density ([1]; 303.15 K) was 782.688 ± 0.12 kg/m3, the speed of sound ([1]; 308.15 K) was 1072 ± 0.58 m/s and the mass density ([1]; 308.15 K) was 777.941 ± 0.12 kg/m3. It also gave a speed of sound ([1]; 313.15 K) of 1055.9 ± 0.58 m/s, a mass density ([1]; 313.15 K) of 773.168 ± 0.12 kg/m3 and a refractive index ([2]; 298.15 K) of 1.3272 ± 0.00031. For the same compound, the refractive index ([2]; 303.15 K) was 1.32552 ± 0.00031, the refractive index ([2]; 308.15 K) was 1.32362 ± 0.00031 and the refractive index ([2]; 313.15 K) was 1.32171 ± 0.00031.
With `CCCCO` [butan-1-ol] the speed of sound ([3]; 298.15 K) was 1239.3 ± 1.2 m/s, the mass density ([3]; 298.15 K) was 805.93 ± 0.24 kg/m3 and the speed of sound ([3]; 303.15 K) was 1222.9 ± 1.2 m/s. It also gave a mass density ([3]; 303.15 K) of 802.088 ± 0.24 kg/m3, a speed of sound ([3]; 308.15 K) of 1206.3 ± 1.2 m/s and a mass density ([3]; 308.15 K) of 798.214 ± 0.24 kg/m3. The speed of sound ([3]; 313.15 K) was 1189.7 ± 1.2 m/s, the mass density ([3]; 313.15 K) was 794.301 ± 0.24 kg/m3 and the refractive index ([4]; 298.15 K) was 1.39747 ± 0.00037. The refractive index ([4]; 303.15 K) was 1.39549 ± 0.00037, the refractive index ([4]; 308.15 K) was 1.39342 ± 0.00037 and the refractive index ([4]; 313.15 K) was 1.39138 ± 0.00037.
`CCCO` [propan-1-ol] + CCCCn1cc[n+](C)c1.COS(=O)(=O)[O-] showed a speed of sound ([1]; 298.15 K) of 1205.9 ± 0.8 m/s, a mass density ([1]; 298.15 K) of 800.008 ± 0.14 kg/m3 and a speed of sound ([1]; 303.15 K) of 1189.3 ± 0.8 m/s. The mass density ([1]; 303.15 K) was 795.97 ± 0.14 kg/m3, the speed of sound ([1]; 308.15 K) was 1172.4 ± 0.79 m/s and the mass density ([1]; 308.15 K) was 791.892 ± 0.14 kg/m3. The speed of sound ([1]; 313.15 K) was 1155.5 ± 0.79 m/s, the mass density ([1]; 313.15 K) was 787.772 ± 0.14 kg/m3 and the refractive index ([2]; 298.15 K) was 1.38334 ± 0.00033. It also gave a refractive index ([2]; 303.15 K) of 1.38131 ± 0.00033, a refractive index ([2]; 308.15 K) of 1.37926 ± 0.00033 and a refractive index ([2]; 313.15 K) of 1.37722 ± 0.00033.
`CCCO` [propan-1-ol] gave a speed of sound ([3]; 298.15 K) of 1205.9 ± 0.8 m/s, a mass density ([3]; 298.15 K) of 800.008 ± 0.14 kg/m3 and a speed of sound ([3]; 303.15 K) of 1189.3 ± 0.8 m/s. It also gave a mass density ([3]; 303.15 K) of 795.97 ± 0.14 kg/m3, a speed of sound ([3]; 308.15 K) of 1172.4 ± 0.79 m/s and a mass density ([3]; 308.15 K) of 791.892 ± 0.14 kg/m3. The speed of sound ([3]; 313.15 K) was 1155.5 ± 0.79 m/s, the mass density ([3]; 313.15 K) was 787.772 ± 0.14 kg/m3 and the refractive index ([4]; 298.15 K) was 1.38334 ± 0.00033. It also gave a refractive index ([4]; 303.15 K) of 1.38131 ± 0.00033, a refractive index ([4]; 308.15 K) of 1.37926 ± 0.00033 and a refractive index ([4]; 313.15 K) of 1.37722 ± 0.00033.
